Measured values from patent publication US9598423B2 (BRISTOL-MYERS SQUIBB COMPANY, priority 2013, dated 2017).
Like-named read-outs stand apart in the source and are kept apart here.

Experiments:
[1] = target: CK1ε (Homo sapiens (Human), UniProt P49674); assay: CK1ε kinase assay (Caliper LABCHIP electrophoretic separation of fluoresceinated peptide substrate and product); type: biochemical; settings: read-out: CK1ε (IC50)
Method in brief: (§1)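 Incubated for twenty-two hours at ambient temperature, then quenched with EDTA and analyzed by electrophoretic separation of unphosphorylated and phosphorylated peptide.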

[2] = target: CK1δ (Homo sapiens (Human), UniProt P48730); assay: CK1δ kinase assay (Caliper LABCHIP electrophoretic separation of fluoresceinated peptide substrate and product); type: biochemical; settings: 200 pM CK1δ, 50 μM ATP, 1.5 μM peptide substrate, 22 hours at room temperature; read-out: CK1δ (IC50)
Method in brief: as §1

[3] = 200 pM CK1ε, 50 μM ATP, 1.5 μM peptide substrate, 22 hours at room temperature

CK1δ, sequence (P48730 whole entry): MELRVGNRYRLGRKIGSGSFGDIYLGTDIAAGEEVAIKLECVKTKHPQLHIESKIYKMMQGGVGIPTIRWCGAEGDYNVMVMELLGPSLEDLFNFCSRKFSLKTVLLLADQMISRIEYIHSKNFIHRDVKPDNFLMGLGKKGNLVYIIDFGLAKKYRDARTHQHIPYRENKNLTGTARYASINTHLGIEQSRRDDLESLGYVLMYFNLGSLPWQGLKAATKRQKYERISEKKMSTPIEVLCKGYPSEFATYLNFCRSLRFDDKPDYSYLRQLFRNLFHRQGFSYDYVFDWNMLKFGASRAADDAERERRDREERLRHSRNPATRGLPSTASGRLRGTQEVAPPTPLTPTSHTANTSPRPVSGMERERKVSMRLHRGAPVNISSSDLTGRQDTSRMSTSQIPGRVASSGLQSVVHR
CK1ε, sequence (P49674 whole entry): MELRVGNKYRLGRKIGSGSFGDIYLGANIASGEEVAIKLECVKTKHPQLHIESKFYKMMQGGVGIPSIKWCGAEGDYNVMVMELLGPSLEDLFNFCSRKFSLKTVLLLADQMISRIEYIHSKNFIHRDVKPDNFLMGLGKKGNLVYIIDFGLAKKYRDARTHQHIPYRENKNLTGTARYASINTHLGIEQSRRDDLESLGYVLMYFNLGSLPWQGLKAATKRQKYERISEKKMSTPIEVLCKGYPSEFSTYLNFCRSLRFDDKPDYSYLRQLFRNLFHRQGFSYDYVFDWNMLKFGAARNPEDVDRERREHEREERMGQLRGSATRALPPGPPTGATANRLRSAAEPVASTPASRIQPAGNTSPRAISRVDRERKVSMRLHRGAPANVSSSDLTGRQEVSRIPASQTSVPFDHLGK

SMILES | IC50 [1, 3] [nM] | IC50 [2] [nM] | IC50 [1] [nM]
CC(C)(C)NC(=O)N1CCn2nc(-c3ccc(F)cc3F)c(C(N)=O)c2C1 [Compound 124, N^5-(tert-Butyl)-2-(2,4-difluorophenyl)-6,7-dihydropyrazolo[1,5-a]pyrazine-3,5(4H)-dicarboxamide] | 100 to 2000 | 100 to 2000 | 
CC12CC3CC(C)(C1)CC(NC(=O)N1CCn4nc(-c5cccc(F)c5)c(C(N)=O)c4C1)(C3)C2 [Compound 81, N^5-(3,5-Dimethyladamantan-1-yl)-2-(3-fluorophenyl)-6,7-dihydropyrazolo[1,5-a]pyrazine-3,5(4H)-dicarboxamide] | 0.01 to 10 | 0.01 to 10 | 
Cc1ccc(-c2nn3c(c2C(N)=O)CN(C(=O)Nc2ccc(C#N)c(C(F)(F)F)c2)CC3)cc1Cl [Compound 253, 2-(3-Chloro-4-methylphenyl)-N^5-(4-cyano-3-(trifluoro-methyl)phenyl)-6,7-dihydropyrazolo [1,5-a]pyrazine-3,5(4H)-dicarboxamide] |  | 0.01 to 10 | 0.01 to 10
NC(=O)c1c(-c2cccc(F)c2)nn2c1CN(C(=O)Nc1cccc(F)c1)CC2 [Compound 77, N^5,2-Bis(3-fluorophenyl)-6,7-dihydropyrazolo[1,5-a]pyrazine-3,5(4H)-dicarboxamide] | 0.01 to 10 | 0.01 to 10 | 
N#Cc1ccc(NC(=O)N2Cc3c(C(N)=O)c(-c4ccc(F)c(Cl)c4)nn3CC23CC3)cc1 [Compound 343, 2′-(3-Chloro-4-fluorophenyl)-N^5′-(4-cyanophenyl)-4′H-spiro[cyclopropane-1,6′-pyrazolo[1,5-a]pyrazine]-3′,5′(7′H)-dicarboxamide] | 10 to 100 | 10 to 100 | 
CC(C)(O)[C@@H]1CN(C(=O)Nc2ccc(C#N)cc2)Cc2c(C(N)=O)c(-c3ccc(Cl)c(Cl)c3)nn21 (single isomer, unassigned) [Compound A34, N^5-(4-Cyanophenyl)-2-(3,4-dichlorophenyl)-7-(2-hydroxypropan-2-yl)-6,7-dihydropyrazolo[1,5-a]pyrazine-3,5(4H)-dicarboxamide] | 0.01 to 10 | 0.01 to 10 | 
CS(=O)(=O)Nc1cccc(-c2nn3c(c2C(N)=O)CN(C(=O)Nc2ccc(C#N)cc2)CC3)c1 [Compound 274, N^5-(4-Cyanophenyl)-2-(3-(methylsulfonamido)phenyl)-6,7-dihydropyrazolo[1,5-a] pyrazine-3,5(4H)-dicarboxamide] | 100 to 2000 | 100 to 2000 | 
NC(=O)c1c(-c2ccc(F)c(Cl)c2)nn2c1CN(C(=O)Nc1ccc(F)c(F)c1)CC2 [Compound 183, 2-(3-Chloro-4-fluorophenyl)-N^5-(3,4-difluorophenyl)-6,7-dihydropyrazolo[1,5-a] pyrazine-3,5(4H)-dicarboxamide] | 0.01 to 10 | 0.01 to 10 | 
NC(=O)c1c(-c2cccc(F)c2)nn2c1CN(C(=O)Nc1ccc(Cl)cc1)CC2 [Compound 10, N^5-(4-Chlorophenyl)-2-(3-fluorophenyl)-6,7-dihydropyrazolo[1,5-a]pyrazine-3,5(4H)-dicarboxamide] | 0.01 to 10 | 0.01 to 10 | 
N#Cc1ccc(NC(=O)N2CCn3nc(-c4ccc(Cl)c(Cl)c4)c(C(N)=O)c3C2)cc1C(F)(F)F [Compound 208, N^5-(4-Cyano-3-(trifluoromethyl)phenyl)-2-(3,4-dichlorophenyl)-6,7-dihydropyrazolo[1,5-a] pyrazine-3,5(4H)-dicarboxamide] | 0.01 to 10 | 0.01 to 10 | 
Cc1cc(F)cc(-c2nn3c(c2C(N)=O)CN(C(=O)Nc2ccc(C#N)c(C(F)(F)F)c2)CC3)c1 [Compound 229, N^5-(4-Cyano-3-(trifluoromethyl)phenyl)-2-(3-fluoro-5-methylphenyl)-6,7-dihydropyrazolo[1,5-a] pyrazine-3,5(4H)-dicarboxamide] |  | 0.01 to 10 | 0.01 to 10
NC(=O)c1c(-c2cccc(F)c2)nn2c1CN(C(=O)NC1C[C@H]1c1ccccc1)CC2 (stereo in doubt) [Compound 44, 2-(3-Fluorophenyl)-N^5-((1R,2S)-2-phenylcyclopropyl)-6,7-dihydropyrazolo[1,5-a]pyrazine-3,5(4H)-dicarboxamide] | 10 to 100 | 0.01 to 10 | 
N#Cc1ccc(NC(=O)N2CCn3nc(-c4ccc(F)c(F)c4)c(C(N)=O)c3C2)cc1F [Compound 236, N^5-(4-Cyano-3-fluorophenyl)-2-(3,4-difluorophenyl)-6,7-dihydropyrazolo[1,5-a] pyrazine-3,5(4H)-dicarboxamide] | 0.01 to 10 | 0.01 to 10 | 
CC1CN(C(=O)Nc2ccc(C#N)cc2)Cc2c(C(N)=O)c(-c3cccc(Cl)c3)nn21 (stereo not shown) [Compound A13, 2-(3-Chlorophenyl)-N^5-(4-cyanophenyl)-7-methyl-6,7-dihydropyrazolo[1,5-a]pyrazine-3,5(4H)-dicarboxamide] | 0.01 to 10 | 0.01 to 10 | 
N#Cc1ccc(NC(=O)N2CCn3nc(-c4cc(Cl)cc(Cl)c4)c(C(N)=O)c3C2)cc1 [Compound 273, N^5-(4-Cyanophenyl)-2-(3,5-dichlorophenyl)-6,7-dihydropyrazolo[1,5-a] pyrazine-3,5(4H)-dicarboxamide] | 0.01 to 10 | 0.01 to 10 | 
NC(=O)c1c(-c2cccc(F)c2)nn2c1CN(C(=O)Nc1cc(F)c(F)c(F)c1)CC2 [Compound 70, 2-(3-Fluorophenyl)-N^5-(3,4,5-trifluorophenyl)-6,7-dihydropyrazolo[1,5-a]pyrazine-3,5(4H)-dicarboxamide] | 0.01 to 10 | 0.01 to 10 | 
NC(=O)c1c(-c2cccc(Cl)c2)nn2c1CN(C(=O)Nc1ccc(N3CCCCC3)cc1)C[C@H]2CF [Compound A10, (S)-2-(3-Chlorophenyl)-7-(fluoromethyl)-N^5-(4-(piperidin-1-yl)phenyl)-6,7-dihydropyrazolo[1,5-a]pyrazine-3,5(4H)-dicarboxamide] | 0.01 to 10 | 0.01 to 10 | 
CN(C)C(=O)c1cccc(-c2nn3c(c2C(N)=O)CN(C(=O)Nc2ccc(C#N)cc2)CC3)c1 [Compound 283, N^5-(4-Cyanophenyl)-2-(3-(dimethylcarbamoyl)phenyl)-6,7-dihydropyrazolo[1,5-a] pyrazine-3,5(4H)-dicarboxamide] | 100 to 2000 | 100 to 2000 | 
NC(=O)c1c(-c2cccc(Cl)c2)nn2c1CN(C(=O)Nc1ccc(Cl)c(Cl)c1)CC2 [Compound 164, 2-(3-Chlorophenyl)-N^5-(3,4-dichlorophenyl)-6,7-dihydropyrazolo[1,5-a] pyrazine-3,5(4H)-dicarboxamide] | 0.01 to 10 | 0.01 to 10 | 
Cc1nc2cc(-c3nn4c(c3C(N)=O)CN(C(=O)Nc3ccc(C#N)c(F)c3)CC4)cc(Cl)c2o1 [Compound 314, 2-(7-Chloro-2-methylbenzo[d]oxazol-5-yl)-N^5-(4-cyano-3-fluorophenyl)-6,7-dihydropyrazolo[1,5-a]pyrazine-3,5(4H)-dicarboxamide] | 0.01 to 10 | 0.01 to 10 | 
N#Cc1ccc(NC(=O)N2CCn3nc(-c4cc(F)c5cn[nH]c5c4)c(C(N)=O)c3C2)cc1Cl [Compound 323, N^5-(3-Chloro-4-cyanophenyl)-2-(4-fluoro-1H-indazol-6-yl)-6,7-dihydropyrazolo[1,5-a]pyrazine-3,5(4H)-dicarboxamide] | 0.01 to 10 | 10 to 100 | 
Cc1cc(-c2nn3c(c2C(N)=O)CN(C(=O)Nc2ccc4c(c2)CS(=O)(=O)C4)CC3)ccc1F [Compound 246, N^5-(2,2-Dioxido-1,3-dihydrobenzo[c]thiophen-5-yl)-2-(4-fluoro-3-methylphenyl)-6,7-dihydropyrazolo[1,5-a] pyrazine-3,5(4H)-dicarboxamide] | 0.01 to 10 | 0.01 to 10 | 
COc1cccc(NC(=O)N2CCn3nc(-c4cccc(Cl)c4)c(C(N)=O)c3C2)c1 [Compound 170, 2-(3-Chlorophenyl)-N^5-(3-methoxyphenyl)-6,7-dihydropyrazolo[1,5-a] pyrazine-3,5(4H)-dicarboxamide] | 0.01 to 10 | 0.01 to 10 | 
N#Cc1ccc(NC(=O)N2Cc3c(C(N)=O)c(-c4cccc(Cl)c4)nn3C3(CC3)C2)cc1 [Compound A86, 2′-(3-Chlorophenyl)-N^5′-(4-cyanophenyl)-4′H-spiro[cyclopropane-1,7′-pyrazolo[1,5-a]pyrazine]-3′,5′(6′H)-dicarboxamide] | 0.01 to 10 | 0.01 to 10 | 
N#Cc1ccc(NC(=O)N2CCn3nc(-c4ccc(F)c(Cl)c4)c(C(N)=O)c3C2)cc1N1CCOCC1 [Compound A49, 2-(3-Chloro-4-fluorophenyl)-N^5-(4-cyano-3-morpholinophenyl)-6,7-dihydropyrazolo[1,5-a]pyrazine-3,5(4H)-dicarboxamide] | 0.01 to 10 | 0.01 to 10 | 
COc1cc(NC(=O)N2CCn3nc(-c4cccc(F)c4)c(C(N)=O)c3C2)ccc1C(F)(F)F [Compound 78, 2-(3-Fluorophenyl)-N^5-(3-methoxy-4-(trifluoromethyl)phenyl)-6,7-dihydropyrazolo[1,5-a]pyrazine-3,5(4H)-dicarboxamide] | 0.01 to 10 | 0.01 to 10 | 
CNC(=O)c1c(-c2ccc(F)c(Cl)c2)nn2c1CN(C(=O)Nc1ccc(C#N)cc1)CC2 [Compound A64, 2-(3-Chloro-4-fluorophenyl)-N^5-(4-cyanophenyl)-N3-methyl-6,7-dihydropyrazolo[1,5-a]pyrazine-3,5(4H)-dicarboxamide] | 100 to 2000 | 100 to 2000 | 
NC(=O)c1c(-c2ccc(F)c(Cl)c2)nn2c1CN(C(=O)Nc1cc(F)c(F)c(F)c1)CC2 [Compound 187, 2-(3-Chloro-4-fluorophenyl)-N^5-(3,4,5-trifluorophenyl)-6,7-dihydropyrazolo[1,5-a] pyrazine-3,5(4H)-dicarboxamide] | 0.01 to 10 | 0.01 to 10 | 
N#Cc1ccc(NC(=O)N2Cc3c(C(N)=O)c(-c4ccc(F)c(Cl)c4)nn3[C@H]3COC[C@H]32)cc1 [Compound 347, (5aS,8aR)-2-(3-Chloro-4-fluorophenyl)-N^5-(4-cyanophenyl)-5a,6,8,8a-tetrahydrofuro[3,4-e]pyrazolo[1,5-a]pyrazine-3,5(4H)-dicarboxamide] | 0.01 to 10 | 0.01 to 10 | 
